According to patent publication US7915291B2, “Hepatitis C virus inhibitors” (Bristol-Myers Squibb Company, priority 2002, dated 2011):
Where two headings read alike, the source gives them in different places.

Columns and labels:
[1] = molecular target: HCV NS3/4A protease complex, BMS strain (UniProt P27958, C1454S/C1711G, species not given/STRAIN_BMS); experiment: Recombinant HCV NS3/4A protease complex FRET peptide assay (BMS strain); type: biochemical, HCV genotype 1a
Description: Recombinant HCV NS3/4A Protease Complex FRET Peptide Assay
The purpose of this in vitro assay was to measure the inhibition of HCV NS3 protease complexes, derived from the BMS, H77C or J416S strains, as described below, by compounds of the present invention.
Serum from an HCV-infected patient was obtained from Dr. T. Wright, San Francisco Hospital. An engineered full-length cDNA (compliment deoxyribonucleic acid) template of the HCV genome (BMS strain) was constructed from DNA fragments obtained by reverse transcription-PCR(RT-PCR) of serum RNA (ribonucleic acid) and using primers selected on the basis of homology between other genotype 1a strains.
The BMS, H77C and J4L6S strains were used for production of recombinant NS3/4A protease complexes. […] Briefly, a three-lysine solubilizing tail was added at the 3′-end of the NS4A coding region. […] Briefly, NS3/4A expression was induced with 0.5 mM Isopropyl β-D-1-thiogalactopyranoside (IPTG) for 22 hr at 20° C. […] The crude protein extract was loaded on a Nickel—Nitrilotriacetic acid (Ni-NTA) column pre-equilibrated with buffer B (25 mM HEPES, pH8.0, 20% glycerol, 500 mM NaCl, 0.5% Triton-X100, 15 mM imidazole, 5 mM βME). The sample was loaded at a flow rate of 1 mL/min. The column was washed with 15 column volumes of buffer C (same as buffer B except with 0.2% Triton-X100). The protein was eluted with 5 column volumes of buffer D (same as buffer C except with 200 mM Imidazole).
NS3/4A protease complex-containing fractions were pooled and loaded on a desalting column Superdex-S200 pre-equilibrated with buffer D (25 mM HEPES, pH7.5, 20% glycerol, 300 mM NaCl, 0.2% Triton-X100, 10 mM βME). Sample was loaded at a flow rate of 1 mL/min. NS3/4A protease complex-containing fractions were pooled and concentrated to approximately 0.5 mg/ml.
The enzyme was stored at −80° C., thawed on ice and diluted prior to use in assay buffer. […] The sequence of this peptide is loosely based on the NS4A/NS4B natural cleavage site except there is an ester linkage rather than an amide bond at the cleavage site. The peptide substrate was incubated with one of the three recombinant NS3/4A complexes, in the absence or presence of a compound of the present invention, and the formation of fluorescent reaction product was followed in real time using a Cytofluor Series 4000.
The reagents were as follow: HEPES and Glycerol (Ultrapure) were obtained from GIBCO-BRL. Dimethyl Sulfoxide (DMSO) was obtained from Sigma. β-Mercaptoethanol was obtained from Bio Rad.
Substrate: 2 μM final concentration (from a 2 mM stock solution in DMSO stored at −20° C.). HCV NS3/4A type 1a (1b), 2-3 nM final concentration (from a 5 μM stock solution in 25 mM HEPES, pH7.5, 20% glycerol, 300 mM NaCl, 0.2% Triton-X100, 10 mM βME).
The assay was performed in a 96-well polystyrene black plate from Falcon. Each well contained 25 μl NS3/4A protease complex in assay buffer, 50 μof a compound of the present invention in 10% DMSO/assay buffer and 25 μl substrate in assay buffer. A control (no compound) was also prepared on the same assay plate. The enzyme complex was mixed with compound or control solution for 1 min before initiating the enzymatic reaction by the addition of substrate. The assay plate was read immediately using the Cytofluor Series 4000 (Perspective Biosystems). The instrument was set to read an […] at 25° C. Reactions were generally followed for approximately 15 minutes.
The percent inhibition was calculated with the following equation: 100−[(δFinh/δFcon)×100] where δF is the change in fluorescence over the linear range of the curve.

[2] = tested on: HCV replicon in Huh7 cells; experiment: HCV replicon cell-based assay; design: species or system HCV strain 1B; settings: Hepatitis C virus, Huh-7; HCV replicon, Huh7 cells; read-out: EC50 range
Description: HCV Replicon Cell-based Assay
This system enabled us to evaluate the effects of our HCV Protease compounds on HCV RNA replication. Briefly, using the HCV strain 1B sequence described in the Lohmann paper (Assession number:AJ238799), an HCV cDNA was generated encoding the 5′ internal ribosome entry site (IRES), the neomycin resistance gene, the EMCV (encephalomyocarditis virus)-IRES and the HCV nonstructural proteins, NS3-NS5B, and 3′ non-translated region (NTR). In vitro transcripts of the cDNA were transfected into the human hepatoma cell line, Huh7. […] Resulting cell lines were characterized for positive and negative strand RNA production and protein production over time.
Huh7 cells, constitutively expressing the HCV replicon, were grown in Dulbecco's Modified Eagle Media (DMEM) containing 10% Fetal calf serum (FCS) and 1 mg/ml G418 (Gibco-BRL). Cells were seeded the night before (1.5×10^4 cells/well) in 96-well tissue-culture sterile plates. Compound and no compound controls were prepared in DMEM containing 4% FCS, 1:100 Penicillin/Streptomysin, 1:100 L-glutamine and 5% DMSO in the dilution plate (0.5% DMSO final concentration in the assay). Compound/DMSO mixes were added to the cells and incubated for 4 days at 37° C. After 4 days, plates were rinsed thoroughly with Phosphate-Buffered Saline (PBS) (3 times 150 μl). The cells were lysed with 25 μl of a lysis assay reagent containing the FRET peptide (RET S1, as described for the in vitro enzyme assay). The lysis assay reagent was made from 5× cell Luciferase cell culture lysis reagent(Promega #E153A) diluted to 1× with distilled water, NaCl added to 150 mM final, the FRET peptide diluted to 10 μM final from a 2 mM stock in 100% DMSO. The plate was then placed into the Cytofluor 4000 instrument which had been set to 340 nm excitation/490 emission, automatic mode for 21 cycles and the plate read in a kinetic mode. EC50 determinations were carried out as described for the IC50 determinations.
Cells were lyzed using the Rneasy kit (Qiagen). […] All primers were designed with ABI Prism 7700 software and obtained from Biosearch Technologies, Novato, Calif. Samples containing known concentrations of HCV RNA transcript were run as standards. Using the following cycling protocol (50° C., 30 min; 95° C., 5 min; 40 cycles of 95° C., 15 sec, 60° C., 1 min), HCV RNA expression was quantitated as described in the Perkin Elmer manual using the ABI Prism 7700 Sequence Detector.

[3] = NS3/4A BMS strain; read-out: IC50 range

Row | SMILES | IC50 [1, 3] [nM] | further results
1 | C=CC1C[C@]1(NC(=O)[C@@H]1C[C@@H](Oc2nc(-c3cnccn3)c(OC)c3ccccc23)CN1C(=O)[C@@H](NC(=O)OC(C)(C)C)C(C)(C)C)C(=O)NS(=O)(=O)C1CC1 (stereo partly drawn) [Compound 231, BOCNH-P3(L-t-BuGly)-P2[(4R)-(3-pyrazine-2-yl-4-methoxy -isoquinolin-1-oxo)-S-proline]-P1(1R,2S VinylAcca)-CONHSO2Cyclopropane] | 1000 to 10000 | –
2 | C=C[C@@H]1C[C@]1(NC(=O)[C@@H]1C[C@@H](Oc2nccc3c(O)cccc23)CN1C(=O)[C@@H](NC(=O)OC(C)(C)C)C(C)(C)C)C(=O)NS(=O)(=O)C1CC1 [Compound 256] | 10000 to 100000 | –
3 | C=CC1C[C@]1(NC(=O)[C@@H]1C[C@@H](Oc2nc(-c3cnc(N(C)C)s3)cc3cc(OC)ccc23)CN1C(=O)[C@@H](NC(=O)OC(C)(C)C)C(C)(C)C)C(=O)NS(=O)(=O)C1CC1 (stereo partly shown) [Compound 331] | < 100 | –
4 | C=C[C@@H]1C[C@]1(NC(=O)[C@@H]1C[C@@H](Oc2nccc3cc(OC)ccc23)CN1C(=O)[C@@H](NC(=O)N[C@@H](C)COC)C(C)(C)C)C(=O)NS(=O)(=O)C1CC1 [Compound 153] | – | EC50 [2]: < 100 nM
5 | C=CC1CC1(NC(=O)[C@@H]1C[C@@H](Sc2cccc3ccccc23)CN1C(=O)[C@@H](NC(=O)OC(C)(C)C)C(C)(C)C)C(=O)NS(C)(=O)=O (stereo partly shown) [Compound 451] | 1000 to 10000 | –
6 | C=CC1CC1(NC(=O)[C@@H]1C[C@@H](Oc2cncc(Br)c2)CN1C(=O)[C@@H](NC(=O)OC(C)(C)C)C(C)(C)C)C(=O)NS(=O)(=O)C1CC1 (stereo partly shown) [Compound 423] | 100 to 1000 | –
7 | C=CC1CC1(NC(=O)[C@@H]1C[C@@H](Oc2ccnc(N3Cc4ccccc4C3)n2)CN1C(=O)[C@@H](NC(=O)OC)C(C)(C)C)C(=O)NS(=O)(=O)C1CC1 (stereo partly shown) [Compound 342] | 1000 to 10000 | –
8 | C=C[C@H]1C[C@@]1(NC(=O)[C@@H]1C[C@@H](Oc2cccc3ccccc23)CN1C(=O)[C@@H](NC(=O)OC(C)(C)C)C(C)(C)C)C(=O)NS(C)(=O)=O [Compound 471] | 1000 to 10000 | –
9 | C=CC1C[C@]1(NC(=O)[C@@H]1C[C@@H](COc2cccc(-c3ccsc3)n2)CN1C(=O)[C@@H](NC(=O)OC)C(C)(C)C)C(=O)NS(=O)(=O)C1CC1 (stereo partly shown) [Compound 353] | 10000 to 100000 | –
10 | C=C[C@@H]1C[C@]1(NC(=O)[C@@H]1C[C@@H](Oc2cccc3ccccc23)CN1C(=O)[C@@H](NC(=O)OC(C)(C)C)C(C)(C)C)C(=O)NS(C)(=O)=O [Compound 470] | 100 to 1000 | –
11 | C=CC1C[C@]1(NC(=O)[C@@H]1C[C@@H](COc2cccc(Br)n2)CN1C(=O)[C@@H](NC(=O)OC)C(C)(C)C)C(=O)NS(=O)(=O)C1CC1 (stereo partly shown) [Compound 352] | 10000 to 100000 | –
12 | C=C[C@@H]1C[C@]1(NC(=O)[C@@H]1C[C@@H](Oc2ccnc3cc(OC)ccc23)CN1C(=O)[C@@H](NC(=O)OC(C)(C)C)C(C)(C)C)C(=O)NS(=O)(=O)C1CC1 [Compound 376] | – | EC50 [2]: < 100 nM
13 | C=CC1CC1(NC(=O)[C@@H]1C[C@@H](Sc2ccc3ccccc3c2)CN1C(=O)[C@@H](NC(=O)OC(C)(C)C)C(C)(C)C)C(=O)NS(C)(=O)=O (stereo partly shown) [Compound 452] | 1000 to 10000 | –
14 | C=CC1CC1(NC(=O)[C@@H]1C[C@@H](Oc2ccnc(N3CCOCC3)n2)CN1C(=O)[C@@H](NC(=O)OC)C(C)(C)C)C(=O)NS(=O)(=O)C1CC1 (stereo partly shown) [Compound 343] | 1000 to 10000 | –
15 | C=CC1C[C@]1(NC(=O)[C@@H]1C[C@@H](COc2ccnc(-c3ccoc3)c2)CN1C(=O)[C@@H](NC(=O)OC)C(C)(C)C)C(=O)NS(=O)(=O)C1CC1 (stereo partly shown) [Compound 351] | 1000 to 10000 | –
16 | C=CC1C[C@]1(NC(=O)[C@@H]1C[C@@H](Oc2nc(Cl)c(OC)c3ccccc23)CN1C(=O)[C@@H](NC(=O)OC(C)(C)C)C(C)(C)C)C(=O)NS(=O)(=O)C1CC1 (stereo partly drawn) [Compound 245, BOCNH-P3(L-t-BuGly)-P2[(4R)-(3-chloro-4-methoxyisoquinoline-1-oxo)-S-proline]-P1(1R,2S VinylAcca)-CONHSO2Cyclopropane] | 100 to 1000 | –
17 | C=CC1C[C@]1(NC(=O)[C@@H]1C[C@@H](COc2cccc(-c3ccccc3)n2)CN1C(=O)[C@@H](NC(=O)OC)C(C)(C)C)C(=O)NS(=O)(=O)C1CC1 (stereo partly shown) [Compound 354] | 1000 to 10000 | –
18 | C=C[C@@H]1C[C@]1(NC(=O)C1C[C@@H](Oc2nc(C3CC3)nc3cc(OC)c(OC)cc23)CN1C(=O)[C@@H](N)C(C)(C)C)C(=O)NS(=O)(=O)C1CC1 (stereo partly shown) [Compound 49] | 1000 to 10000 | –
19 | C=CC1CC1(NC(=O)C1CC(Oc2nccc3cc(OC)ccc23)CN1C(=O)C(NC)C(C)CC)C(=O)NS(=O)(=O)C1CC1 (stereo not shown) [Compound 99] | – | IC50 ([1]; read-out: IC50 range; NS3/4A BMS strain): 1000 to 10000 nM
20 | C=CC1C[C@]1(NC(=O)[C@@H]1C[C@@H](COc2ccnc3ccccc23)CN1C(=O)[C@@H](NC(=O)OC)C(C)(C)C)C(=O)NS(=O)(=O)C1CC1 (stereo partly shown) [Compound 344] | 100 to 1000 | –
21 | C=CC1C[C@]1(NC(=O)[C@@H]1C[C@@H](COc2ccnc(-c3ccsc3)c2)CN1C(=O)[C@@H](NC(=O)OC)C(C)(C)C)C(=O)NS(=O)(=O)C1CC1 (stereo partly shown) [Compound 349] | 1000 to 10000 | –
22 | C=CC1C[C@]1(NC(=O)[C@@H]1C[C@@H](COc2cncc(Br)c2)CN1C(=O)[C@@H](NC(=O)OC)C(C)(C)C)C(=O)NS(=O)(=O)C1CC1 (stereo partly shown) [Compound 346] | 1000 to 10000 | –
23 | C=CC1CC1(NC(=O)[C@@H]1C[C@@H](Oc2ccnc(N3CCc4ccccc4C3)n2)CN1C(=O)[C@@H](NC(=O)OC)C(C)(C)C)C(=O)NS(=O)(=O)C1CC1 (stereo partly shown) [Compound 341] | 1000 to 10000 | –
24 | C=CC1C[C@]1(NC(=O)[C@@H]1C[C@@H](COc2ccnc(Br)c2)CN1C(=O)[C@@H](NC(=O)OC)C(C)(C)C)C(=O)NS(=O)(=O)C1CC1 (stereo partly shown) [Compound 348] | 10000 to 100000 | –
25 | C=C[C@@H]1C[C@]1(NC(=O)C1C[C@@H](Oc2nc(C(F)(F)F)nc3cc(OC)c(OC)cc23)CN1C(=O)[C@@H](N)C(C)(C)C)C(=O)NS(=O)(=O)C1CC1 (stereo partly shown) [Compound 52] | 1000 to 10000 | –
